Values quoted from earlier work, collected in US20090196923A1, “CONTROLLED RELEASE FORMULATION COMPRISING ANTI-EPILEPTIC DRUGS” (priority 2006, published 2009).

water solubility: poor water solubility
Compound: NC(=O)N1c2ccccc2CC(=O)c2ccccc21 [Oxcarbazepine, 10, 11-dihydro-10-oxocarbamazepine]
